The source of these data is BindingDB's records for doi:10.1016/j.bmcl.2013.05.020 (Vanderbilt University Medical Center, 2013).

Broadly, the IC50 is the midpoint of a concentration-inhibition curve.

The target in this experiment is Metabotropic glutamate receptor 1 (Homo sapiens, UniProt Q13255). Kind of experiment: Negative allosteric modulation of human mGluR1 expressed in HEK293A cells assessed as inhibition of glutamate-induced calcium mobilization. (In general: A change in cytosolic calcium serves as a functional read-out for many receptors and channels.)
Metabotropic glutamate receptor 1, sequence (Q13255 whole entry): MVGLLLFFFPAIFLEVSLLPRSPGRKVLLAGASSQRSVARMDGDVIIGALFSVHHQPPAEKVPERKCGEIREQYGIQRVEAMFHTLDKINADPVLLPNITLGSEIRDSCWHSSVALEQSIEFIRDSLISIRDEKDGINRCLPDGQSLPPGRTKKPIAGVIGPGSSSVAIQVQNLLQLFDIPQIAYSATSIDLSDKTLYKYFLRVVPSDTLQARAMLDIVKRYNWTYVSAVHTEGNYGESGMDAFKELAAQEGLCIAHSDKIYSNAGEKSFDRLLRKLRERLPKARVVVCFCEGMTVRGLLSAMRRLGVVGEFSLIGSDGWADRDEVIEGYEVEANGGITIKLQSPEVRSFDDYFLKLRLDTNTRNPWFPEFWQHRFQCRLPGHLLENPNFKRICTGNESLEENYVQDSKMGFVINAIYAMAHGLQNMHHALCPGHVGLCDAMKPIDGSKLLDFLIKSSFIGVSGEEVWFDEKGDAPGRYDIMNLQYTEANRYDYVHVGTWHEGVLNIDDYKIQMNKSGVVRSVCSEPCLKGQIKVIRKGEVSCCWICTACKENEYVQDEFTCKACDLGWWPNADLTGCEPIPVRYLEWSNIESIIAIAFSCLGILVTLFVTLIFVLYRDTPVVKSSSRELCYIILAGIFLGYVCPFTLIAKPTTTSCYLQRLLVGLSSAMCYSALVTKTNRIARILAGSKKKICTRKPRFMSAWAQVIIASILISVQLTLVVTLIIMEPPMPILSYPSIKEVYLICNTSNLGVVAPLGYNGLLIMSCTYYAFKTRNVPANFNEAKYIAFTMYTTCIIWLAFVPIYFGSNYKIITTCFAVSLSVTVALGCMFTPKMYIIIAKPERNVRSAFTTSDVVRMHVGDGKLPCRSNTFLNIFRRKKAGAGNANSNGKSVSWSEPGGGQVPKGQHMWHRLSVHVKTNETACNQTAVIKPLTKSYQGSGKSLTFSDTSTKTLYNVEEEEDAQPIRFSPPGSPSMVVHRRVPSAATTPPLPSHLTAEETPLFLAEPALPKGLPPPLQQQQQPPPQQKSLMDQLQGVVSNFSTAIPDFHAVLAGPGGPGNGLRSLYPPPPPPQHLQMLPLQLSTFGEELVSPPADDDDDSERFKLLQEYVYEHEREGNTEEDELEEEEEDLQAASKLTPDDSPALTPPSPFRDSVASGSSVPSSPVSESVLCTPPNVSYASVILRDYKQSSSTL
Consider `C[C@@H]1CN(C(=O)C23CC4CC(CC(C4)C2)C3)CCN1c1ccncc1`, for which the IC50 is above 31.6 µM.
For `C[C@@H]1CN(c2ccccn2)CCN1C(=O)C1CC1` the value was above 31.6 µM; for `C[C@@H]1CN(C(=O)[C@H]2CC[C@H](C)CC2)CCN1c1ccccn1`, above 31.6 µM; for `C[C@@H]1CN(C(=O)C2CCCCC2)CCN1c1ccccn1`, above 31.6 µM.
Turning to `C[C@@H]1CN(C(=O)C2CC2)CCN1c1ccccn1`, the IC50 is above 31.6 µM.
With `C[C@@H]1CN(C(=O)C23C4C5C6C4C2C6C53)CCN1c1ccccn1` (stereo partly drawn), the IC50 is above 31.6 µM.
For `C[C@@H]1CN(c2ccccn2)CCN1C(=O)C(C)(C)C` the value was above 31.6 µM; for `C[C@@H]1CN(C(=O)C(C)(C)C)CCN1c1ccccn1`, above 31.6 µM.
